Reference: patent publication US4647586A, “Pharmaceutical oil-in-water type micro-emulsion” (priority 1984, dated 1987)
“Also recorded” adds a separate entry of the source.

Legend:
[1] = system: Carrageenin-induced paw edema; experiment: Carrageenin-induced paw edema in rats [Test 1]; format: in vivo, Wistar strain male rats
Procedure: A-1: Effect of inhibiting carrageenin-induced paw edema
(a) Experimental animals: Wistar strain male rats (body weight 160-220 g), 7 per group.
As a control drug, an aqueous solution of sodium 4-biphenylylacetate was used.
The volume of the left hind paw of each rat was measured with a plethysmometer (supplied by Ugo Basile Company). A 1% carrageenin solution as an inflammation inducer was injected subcutaneously into the left hind paw of each rat to induce paw edema. The volume of the paw of the rat was measured before the administration of carrageenin and every hour after the administration up to 6 hours. […] The test drugs were intravenously administered 2 hours after the injection of carrageenin. The edema inhibition rate were calculated by the following equation. [formula]
Ec: the volume of edema of the control group to which only the solvent was administered at each time (average value)
Et: the volume of edema in the drug-administered group at each time (average value)

[2] = system: Adjuvant-induced polyarthritis; experiment: Adjuvant-induced polyarthritis in rats, adjuvant-injected paw [Test 2]; format: in vivo, SD-strain female rats
Procedure: (a) Experimental animals: SD-strain famale rats 140-180g).
(§1) (b) Test drugs: The same as in A-1 [Test 2].
Rats were anesthetized with ether inhalation, and 0.6 mg of Mycobacterium butyricum suspended in 0.1 ml of white paraffin oil was immediately injected intradermally into the planter surface of the left hind paw of each rat via a 27 gauge needle fitted to a 0.5 ml syringe (day 0). On the 14th day after the adjuvant injection, arthritis-established rats selected by development of secondary lesions were used. Volumes of both hind paws in arthritis-established rats were measured by a plethysmometer (UGO BASILE), and the rats were randomized on the basis of the edema volume in the adjuvant-injected paw. Once daily, beginning on the 14th day up to the 18th day, drugs and vehicles were administered intravenously. Measurements of both paw volumes were performed every day from the 15th day up to the 18th day, and on the 21st day and the 24th day. The inhibition percent were calculated in accordance with the calculation formula as in [Test 1] of A-1.

[3] = system: abnormal 3-legged gait (brewers yeast-inflamed paw); experiment: Reversal of abnormal 3-legged gait in rats (analgesic activity); format: in vivo, SD-strain male rats; conditions: Rattus norvegicus, iv, read-out: ED50 (dose causing at least 50% reversal of gait score in 50% of the rats)
Procedure: (a) Experimental animals: SD-strain male rats (120-165 g).
as §1
A 40% suspension of dried brewers yeast in physiological saline was injected (0.25 ml/rat) subcutaneously into the planter surface of the left hind paw of each rat. Three hours later, the walking gait on a wire mesh platform was assessed for each rat.
0 = Normal gait in the presence of a severely
0.5 = As above, with intermittent mild limping.
1.0 = Constant limping, but continuous use of
1.5 = Limping with occasional 3-legged gait
2.0 = Continous 3-Legged gait and/or only the
Any rat not showing a gait score of 2 was eliminated from this test. Drugs and vehicles were then administered intravenously. Measurements of the gait were made at 1, 2, 3 and 4 hours after drug administration.

[4] = system: brewer's yeast-induced fever; experiment: Effects on body temperature in pyretic rats (antipyretic activity); format: in vivo, SD-strain male rats; conditions: iv, 17 h, read-out: ED50 (dose reducing body temperature by at least 1.5° C. in 50% of the rats)
Procedure: (a) Experimental animals SD-strain male rats (120-185 g).
as §1
Male Sprague-Dawley rats, weighing 120-185 g, were injected subcutaneously in the nape of the neck with 2 ml of a 20% suspension of dried brewers yeast in physiological saline. Drugs and vehicles were administered intravenously 17 hours after treatment of yeast suspension. Rectal temperature was recorded with a thermistor type thermometer (Natsume Seisakusho, BMA-77 Type) just prior to drug administration and at 1/2, 1, 2 and 4 hours after drug administration.

[5] = Toxicity test, single tail vein administration, 3 days observation; format: in vivo, Charles River-strain SD male rats; conditions: rat, in vivo, iv; read-out: Doses with no change in general symptoms and autopsy
Procedure: (§2) Charles River-strain SD male rats (6 weeks old; body weight 160-170 g), 5 per group, were used. […] The doses were 50, 100, 200 and 400 mg/kg. As a control, an aqueous solution of sodium 4-biphenylylacetate was administered.

[6] = system: Charles River-strain SD male rats; experiment: as above; format: in vivo
Procedure: as §2

[7] = Distribution to the tissue; conditions: 10 mg/kg tail vein, as 4-biphenylylacetic acid
Procedure: (a) Experimental animals: Wistar-strain male rats (body weight 60-220 g), 6 per group.
The rats were periodically killed, and the major organs were extracted. The concentration of the drug in the tissues were measured by the conventional HPLC method.

Question: For `O=C([O-])Cc1ccc(-c2ccccc2)cc1.[Na+]`, which “Edema inhibitory effect (inhibition rate, %)” value ([1]; 2.5 mg/kg i.v. as 4-biphenylylacetic acid, 2 hours after carrageenin (time of dosing)) is on record?
Answer: The value was 0%.

Question: What about the “Edema inhibitory effect (inhibition rate, %)” value ([1]; 2.5 mg/kg i.v. as 4-biphenylylacetic acid, 3 hours after carrageenin) of the same molecule?
Answer: The value was 8.4%.

Question: What about the “Edema inhibitory effect (inhibition rate, %)” value ([1]; 2.5 mg/kg i.v. as 4-biphenylylacetic acid, 4 hours after carrageenin) of the same molecule?
Answer: Its value is 13.2%.

Question: And the “Edema inhibitory effect (inhibition rate, %)” value ([1]; 2.5 mg/kg i.v. as 4-biphenylylacetic acid, 5 hours after carrageenin)?
Answer: The value was 17.1%.

Question: And the “Edema inhibitory effect (inhibition rate, %)” value ([1]; 2.5 mg/kg i.v. as 4-biphenylylacetic acid, 6 hours after carrageenin)?
Answer: The value was 19.8%.

Question: And the “Edema inhibitory effect (inhibition rate, %)” value ([1]; 5.0 mg/kg i.v. as 4-biphenylylacetic acid, 2 hours after carrageenin (time of dosing))?
Answer: The value was 0%.

Question: And the “Edema inhibitory effect (inhibition rate, %)” value ([1]; 5.0 mg/kg i.v. as 4-biphenylylacetic acid, 3 hours after carrageenin)?
Answer: The value was 9.5%.

Question: What about the “Edema inhibitory effect (inhibition rate, %)” value ([1]; 5.0 mg/kg i.v. as 4-biphenylylacetic acid, 4 hours after carrageenin) of the same molecule?
Answer: The value was 15.1%.

Question: What about the “Edema inhibitory effect (inhibition rate, %)” value ([1]; 5.0 mg/kg i.v. as 4-biphenylylacetic acid, 5 hours after carrageenin) of the same molecule?
Answer: The value was 17.4%.

Question: What about the “Edema inhibitory effect (inhibition rate, %)” value ([1]; 5.0 mg/kg i.v. as 4-biphenylylacetic acid, 6 hours after carrageenin) of the same molecule?
Answer: The value was 20.8%.

Question: What about the ED20 ([1]; Rattus norvegicus, iv, 2 h, read-out: ED20 (20% edema inhibitory effect)) of the same molecule?
Answer: The ED20 was 8.5 mg/kg.

Question: And the “Edema inhibitive effect versus the micro-emulsions” value ([1]; i.v.)?
Answer: Its value is “less effect”.

Question: What about the “Inhibition (%)” value ([2]; 1.25 mg/kg/day i.v. as 4-biphenylylacetic acid, day 15) of the same molecule?
Answer: The value was -1.8%.

Question: What about the “Inhibition (%)” value ([2]; 1.25 mg/kg/day i.v. as 4-biphenylylacetic acid, day 16) of the same molecule?
Answer: The value was 1.2%.

Question: What about the “Inhibition (%)” value ([2]; 1.25 mg/kg/day i.v. as 4-biphenylylacetic acid, day 17) of the same molecule?
Answer: Its value is 7.9%.

Question: And the “Inhibition (%)” value ([2]; 1.25 mg/kg/day i.v. as 4-biphenylylacetic acid, day 18)?
Answer: Its value is 3.9%.

Question: And the “Inhibition (%)” value ([2]; 1.25 mg/kg/day i.v. as 4-biphenylylacetic acid, day 21)?
Answer: The value was -7.5%.

Question: What about the “Inhibition (%)” value ([2]; 1.25 mg/kg/day i.v. as 4-biphenylylacetic acid, day 24) of the same molecule?
Answer: The value was -14.1%.

Question: And the “Inhibition (%)” value ([2]; 2.5 mg/kg/day i.v. as 4-biphenylylacetic acid, day 15)?
Answer: The value was -4.2%.

Question: What about the “Inhibition (%)” value ([2]; 2.5 mg/kg/day i.v. as 4-biphenylylacetic acid, day 16) of the same molecule?
Answer: The value was 1.5%.

Question: And the “Inhibition (%)” value ([2]; 2.5 mg/kg/day i.v. as 4-biphenylylacetic acid, day 17)?
Answer: The value was 1.9%.

Question: What about the “Inhibition (%)” value ([2]; 2.5 mg/kg/day i.v. as 4-biphenylylacetic acid, day 18) of the same molecule?
Answer: The value was -3.9%.

Question: What about the “Inhibition (%)” value ([2]; 2.5 mg/kg/day i.v. as 4-biphenylylacetic acid, day 21) of the same molecule?
Answer: Its value is -15.7%.

Question: And the “Inhibition (%)” value ([2]; 2.5 mg/kg/day i.v. as 4-biphenylylacetic acid, day 24)?
Answer: The value was -29.7%.

Question: What about the “Inhibition (%)” value ([2]; 5.0 mg/kg/day i.v. as 4-biphenylylacetic acid, day 15) of the same molecule?
Answer: Its value is 7.3%.

Question: What about the “Inhibition (%)” value ([2]; 5.0 mg/kg/day i.v. as 4-biphenylylacetic acid, day 16) of the same molecule?
Answer: Its value is 12.9%.

Question: What about the “Inhibition (%)” value ([2]; 5.0 mg/kg/day i.v. as 4-biphenylylacetic acid, day 17) of the same molecule?
Answer: The value was 17.9%.

Question: And the “Inhibition (%)” value ([2]; 5.0 mg/kg/day i.v. as 4-biphenylylacetic acid, day 18)?
Answer: The value was 15.6%.

Question: What about the “Inhibition (%)” value ([2]; 5.0 mg/kg/day i.v. as 4-biphenylylacetic acid, day 21) of the same molecule?
Answer: Its value is 9.2%.

Question: And the “Inhibition (%)” value ([2]; 5.0 mg/kg/day i.v. as 4-biphenylylacetic acid, day 24)?
Answer: Its value is 2.8%.

Question: What about the “Inhibition (%)” value ([2]; 10.0 mg/kg/day i.v. as 4-biphenylylacetic acid, day 15) of the same molecule?
Answer: The value was 8.2%.

Question: And the “Inhibition (%)” value ([2]; 10.0 mg/kg/day i.v. as 4-biphenylylacetic acid, day 16)?
Answer: The value was 9.5%.

Question: And the “Inhibition (%)” value ([2]; 10.0 mg/kg/day i.v. as 4-biphenylylacetic acid, day 17)?
Answer: Its value is 17.9%.

Question: And the “Inhibition (%)” value ([2]; 10.0 mg/kg/day i.v. as 4-biphenylylacetic acid, day 18)?
Answer: The value was 16.6%.

Question: What about the “Inhibition (%)” value ([2]; 10.0 mg/kg/day i.v. as 4-biphenylylacetic acid, day 21) of the same molecule?
Answer: Its value is 1.3%.

Question: What about the “Inhibition (%)” value ([2]; 10.0 mg/kg/day i.v. as 4-biphenylylacetic acid, day 24) of the same molecule?
Answer: Its value is -0.7%.

Question: And the ED20 ([2]; Rattus norvegicus, iv, read-out: ED20 (dose required to cause a 20% inhibition of adjuvant-injected paw volume))?
Answer: Its ED20 is 14.3 mg/kg.

Question: And the ED50 [3]?
Answer: Its ED50 is 7.1 mg/kg.

Question: And the ED50 [4]?
Answer: Its ED50 is 2.6 mg/kg.

Question: And the NOAEL at 72 h [5]?
Answer: The NOAEL at 72 h was ≥ 50 mg/kg.

Question: And the “Findings: autopsy” value ([6]; 50 mg/kg i.v.)?
Answer: Its value is “No change”.

Question: And the “Findings: general symptoms” value ([6]; 50 mg/kg i.v.)?
Answer: The value was “No change”.

Question: And the “Number of the dead” value ([6]; 50 mg/kg i.v. as 4-biphenylylacetic acid)?
Answer: The value was 0/5.

Question: And the “Findings: general symptoms (spontaneous motion)” value ([6]; 100 mg/kg i.v.)?
Answer: The value was “motion decreased”.

Question: What about the “Number of the dead” value ([6]; 100 mg/kg i.v. as 4-biphenylylacetic acid) of the same molecule?
Answer: Its value is 0/5.

Question: And the “Findings: general symptoms” value ([6]; 200 mg/kg i.v.)?
Answer: Its value is “tarry feces”.

Question: What about the “Number of the dead” value ([6]; 200 mg/kg i.v. as 4-biphenylylacetic acid) of the same molecule?
Answer: The value was 3/5.

Question: And the “Number of the dead” value ([6]; 400 mg/kg i.v. as 4-biphenylylacetic acid)?
Answer: The value was 3/5.

Question: What about the “Findings: autopsy” value ([6]; at least 100 mg/kg i.v.) of the same molecule?
Answer: Its value is “Peptic ulcer occurred; also recorded: intestinal adherence”.

Question: And the “Findings: general symptoms” value ([6]; at least 100 mg/kg i.v.)?
Answer: The value was “Body weight increase inhibition”.

Question: And the “Findings: general symptoms” value ([6]; at least 200 mg/kg i.v.)?
Answer: The value was “pallor”.

Question: And the “Doses at which changes occurred” value ([6]; rat, in vivo)?
Answer: The value was “more than 100 mg/kg”.

Question: And the “Tissue concentration at 30 seconds after administration” value [7]?
Answer: The value was “concentrations above those at which they showed a pharmacological activity”.
